Data: patent publication US5998654A, “Retinoic acid receptor antagonist compounds and methods” (Ligand Pharmaceuticals Incorporated, priority 1997, dated 1999)

Columns and labels:
RARα [1] = biological target: T1, RARα (Homo sapiens, UniProt P10276); experiment: RAR binding, RARα; settings: Kd from IC50 by Cheng-Prussof equation
T1 sequence (P10276 1-462): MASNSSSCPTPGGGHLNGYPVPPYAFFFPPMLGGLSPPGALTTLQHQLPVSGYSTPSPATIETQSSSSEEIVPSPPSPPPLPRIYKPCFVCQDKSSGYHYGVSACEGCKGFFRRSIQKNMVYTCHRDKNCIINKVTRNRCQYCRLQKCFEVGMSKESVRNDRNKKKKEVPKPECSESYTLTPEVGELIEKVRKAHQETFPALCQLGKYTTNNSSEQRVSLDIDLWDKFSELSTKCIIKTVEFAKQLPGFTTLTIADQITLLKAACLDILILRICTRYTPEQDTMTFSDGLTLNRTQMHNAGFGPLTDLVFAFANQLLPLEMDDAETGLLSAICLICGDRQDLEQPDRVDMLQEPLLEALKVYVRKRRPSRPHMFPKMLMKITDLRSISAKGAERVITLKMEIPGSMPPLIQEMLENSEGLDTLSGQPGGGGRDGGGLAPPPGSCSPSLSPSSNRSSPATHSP
Experimental: Non-specific binding was defined as that binding remaining in the presence of 500 nM of the appropriate unlabelled compound. At the end of the incubation period, bound from free ligand were separated. The amount of bound tritiated retinoids was determined by liquid scintillation counting of an aliquot (700 μL) of the supernatant fluid or the hydroxylapatite pellet.
After correcting for non-specific binding, IC50 values were determined. […] The IC50 value was determined graphically from a log-logit plot of the data. The Kd values were determined by application of the Cheng-Prussof equation to the IC50 values, the labeled ligand concentration and the Kd of the labeled ligand.

RARα [2] = biological target: T1, RARα; experiment: co-transfection assay, antagonist activity on RARα; assay type: cell-based; parameters: expressed in transfected cells; host or cells: CV-1 cells (African green monkey kidney); settings: CV-1 cells, in presence of known RAR agonist TTNPB; for IC50: read-out: IC50 antagonist potency, RARα
Description: This assay is described in further detail in U.S. Pat. Nos. 4,981,784 and 5,071,773, the disclosures of which are incorporated herein by reference.
In the co-transfection assay, a cloned cDNA for an IR (e.g., human RARα:, RARβ, RXRγ) under the control of a constitutive promoter (e.g., the SV 40 promoter) is introduced by transfection (a procedure to induce cells to take up foreign genes) into a background cell substantially devoid of endogenous IRs. This introduced gene directs the recipient cells to make the IR protein of interest. A second gene is also introduced (co-transfected) into the same cells in conjunction with the IR gene. This second gene, comprising the cDNA for a reporter protein, such as firefly luciferase (LUC), is controlled by an appropriate hormone responsive promoter containing a hormone response element (HRE). This reporter plasmid functions as a reporter for the transcription-modulating activity of the target IR. Thus, the reporter acts as a surrogate for the products (mRNA then protein) normally expressed by a gene under control of the target receptor and its native hormone.
The co-transfection assay can detect small molecule agonists or antagonists of target IRs. Exposing the transfected cells to an agonist ligand compound increases reporter activity in the transfected cells. This activity can be conveniently measured, e.g., by increasing luciferase production, which reflects compound-dependent, IR-mediated increases in reporter transcription. To detect antagonists, the co-transfection assay is carried out in the presence of a constant concentration of an agonist to the target IR (e.g., all-trans retinoic acid for RARα) known to induce a defined reporter signal. Increasing concentrations of a suspected antagonist will decrease the reporter signal (e.g., luciferase production). The co-transfection assay is therefore useful to detect both agonists and antagonists of specific IRs. Furthermore, it determines not only whether a compound interacts with a particular IR, but whether this interaction mimics (agonizes) or blocks (antagonizes) the effects of the native regulatory molecules on target gene expression, as well as the specificity and strength of this interaction.
CV-1 cells (African green monkey kidney fibroblasts) were cultured in the presence of Dulbecco's Modified Eagle Medium (DMEM) supplemented with 10% charcoal resin-stripped fetal bovine serum then transferred to 96-well microtiter plates one day prior to transfection.
To determine RAR and/or RXR agonist activity of the compounds of the present invention, the CV-1 cells were transiently transfected by calcium phosphate coprecipitation according to the procedure of Berger et al., 41 J. Steroid Biochem. Mol. Biol., 733 (1992) with the following receptor expressing plasmids: pRShRARα: Giguere et al., 330 Nature, 624 (1987); pRShRARβ and pRShRARγ, Ishikawa et al., 4 Mol. Endocrin., 837 (1990); pRShRXRα, Mangelsdorf et al., 345 Nature, 224 (1990); and pRSmRXRβ and pRSmRXRγ, Mangelsdorf et al., 6 Genes & Devel., 329 (1992), the disclosures of which are herein incorporated by reference. Each of these receptor expressing plasmids was co-transfected at a concentration of 5 ng/well, along with a basal reporter plasmid at 100 ng/well, the internal control plasmid pRS-β-Gal at 50 ng/well and filler DNA, pGEM at 45 ng/well.
The basal reporter plasmid D-MTV-LUC (Hollenberg and Evans, 55 Cell, 899 (1988), the disclosure of which is herein incorporated by reference) containing two copies of the TRE-palindromic response element described in Umesono et al., 336 Nature, 262 (1988), the disclosure of which is herein incorporated by reference, was used in transfections for the RARs, and the reporter plasmid CRBPIIFKLUC, which contains an RXRE (retinoid X receptor response element, as described in Mangelsdorf et al., 66 Cell, 555 (1991), the disclosure of which is herein incorporated by reference), was used in transfections for the RXRs.

Row | Compound | Kd (RARα [1]) [nM] | efficacy of antagonist, % of maximal inhibition, RARα (in parentheses after IC50) (RARα [2]) [%] | IC50 (RARα [2]) [nM]
1 | CCCCOc1c(C(C)(C)C)cc(/C(C)=C/C=C/C(C)=C/C(=O)O)cc1C(C)(C)C [Compound 7, 2E, 4E, 6E-[7-(3,5-Di-t-butyl-4-n-butoxyphenyl)-3-methyl]-octa-2,4,6-trienoic acid] | 3 | 90 | 4
2 | CCCOc1c(C(C)(C)C)cc(/C(C)=C/C=C/C(C)=C/C(=O)O)cc1C(C)(C)C [Compound 8, 2E, 4E, 6E-[7-(3,5-Di-t-butyl-4-n-propoxyphenyl)-3-methyl]-octa-2,4,6-trienoic acid] | 2 | 90 | 2
3 | CCCCCOc1c(C(C)(C)C)cc(/C(C)=C/C=C/C(C)=C/C(=O)O)cc1C(C)(C)C [Compound 9, 2E, 4E, 6E-[7-(3,5-Di-t-butyl-4-n-pentoxyphenyl)-3-methyl]-octa-2,4,6-trienoic acid] | 9 | 91 | 5
4 | C=C(c1ccccc1)c1cc(/C(C)=C/C=C/C(C)=C/C(=O)O)cc(C(C)(C)C)c1 [Compound 17, (2E,4E,6E)-7-[3-t-butyl-5-(1-phenyl-vinyl)-phenyl]-3-methyl-octa-2,4,6-trienoic acid] | 2 | 98 | 2
